Activity calls are given as the source filed them. The rule behind the calls is not given here.

Test [1] has as its target Sodium-dependent serotonin transporter (Rattus norvegicus, UniProt P31652). Briefly: Binding affinity at rat SERT.
Test [2] deals with Sodium-dependent serotonin transporter (Homo sapiens, UniProt P31645). Briefly: Binding affinity at human SERT.
The next test has as its target Histamine H3 receptor (Homo sapiens, UniProt Q9Y5N1). Briefly: Antagonistic activity at H3 receptor expressed in […] cells assessed as forskolin stimulated cyclic AMP accumulation by functional assay. The format is cell-based, SK-N-MC. The conditions noted are these: read-out: pA2 (converted).
The test system of test [3] is Mus musculus. Briefly: Effect on 5HTP induced mouse head twitch model at 10 mg/kg after 1 hr. It is filed as functional, organism-based. Set-up: dose 10 mg/kg.
Test [4] concerns Mus musculus. Briefly: Effect on 5HTP induced mouse head twitch model at 10 mg/kg after 24 hrs. It is filed as functional.

Sodium-dependent serotonin transporter (Homo sapiens, UniProt P31645), sequence (P31645 whole entry): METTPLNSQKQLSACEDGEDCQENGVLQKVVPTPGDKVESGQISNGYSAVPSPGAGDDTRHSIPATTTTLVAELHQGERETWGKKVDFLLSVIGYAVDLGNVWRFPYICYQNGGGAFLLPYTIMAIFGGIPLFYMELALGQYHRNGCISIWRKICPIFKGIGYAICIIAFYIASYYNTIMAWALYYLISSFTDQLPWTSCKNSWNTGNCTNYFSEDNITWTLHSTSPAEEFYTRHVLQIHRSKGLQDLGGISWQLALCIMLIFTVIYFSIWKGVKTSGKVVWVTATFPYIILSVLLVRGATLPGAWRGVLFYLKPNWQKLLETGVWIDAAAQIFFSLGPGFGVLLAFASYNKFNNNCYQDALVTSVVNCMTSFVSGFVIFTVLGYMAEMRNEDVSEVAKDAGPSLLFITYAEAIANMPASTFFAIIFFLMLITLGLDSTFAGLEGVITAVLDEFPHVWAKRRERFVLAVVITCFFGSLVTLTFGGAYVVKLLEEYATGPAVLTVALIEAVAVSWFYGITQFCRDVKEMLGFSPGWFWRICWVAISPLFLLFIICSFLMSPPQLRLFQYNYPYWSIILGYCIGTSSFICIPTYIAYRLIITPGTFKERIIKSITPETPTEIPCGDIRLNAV
Sodium-dependent serotonin transporter (Rattus norvegicus, UniProt P31652), sequence (P31652 whole entry): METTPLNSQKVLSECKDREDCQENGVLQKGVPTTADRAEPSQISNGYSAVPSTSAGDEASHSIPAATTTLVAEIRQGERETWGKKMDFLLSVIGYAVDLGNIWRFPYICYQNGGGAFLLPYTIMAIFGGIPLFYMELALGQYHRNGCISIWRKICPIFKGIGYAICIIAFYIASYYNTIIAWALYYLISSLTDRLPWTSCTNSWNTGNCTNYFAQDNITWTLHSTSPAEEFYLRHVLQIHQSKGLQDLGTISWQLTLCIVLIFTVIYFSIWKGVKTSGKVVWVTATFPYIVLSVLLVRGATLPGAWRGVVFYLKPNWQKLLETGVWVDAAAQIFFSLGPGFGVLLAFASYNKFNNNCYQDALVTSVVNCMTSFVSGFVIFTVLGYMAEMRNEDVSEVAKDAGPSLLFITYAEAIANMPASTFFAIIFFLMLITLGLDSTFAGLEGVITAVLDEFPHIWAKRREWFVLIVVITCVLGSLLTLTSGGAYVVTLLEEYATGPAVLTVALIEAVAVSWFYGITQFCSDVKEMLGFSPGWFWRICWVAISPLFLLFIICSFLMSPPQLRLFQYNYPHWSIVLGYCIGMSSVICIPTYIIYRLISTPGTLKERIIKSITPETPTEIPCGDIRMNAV
Histamine H3 receptor, sequence (Q9Y5N1 whole entry): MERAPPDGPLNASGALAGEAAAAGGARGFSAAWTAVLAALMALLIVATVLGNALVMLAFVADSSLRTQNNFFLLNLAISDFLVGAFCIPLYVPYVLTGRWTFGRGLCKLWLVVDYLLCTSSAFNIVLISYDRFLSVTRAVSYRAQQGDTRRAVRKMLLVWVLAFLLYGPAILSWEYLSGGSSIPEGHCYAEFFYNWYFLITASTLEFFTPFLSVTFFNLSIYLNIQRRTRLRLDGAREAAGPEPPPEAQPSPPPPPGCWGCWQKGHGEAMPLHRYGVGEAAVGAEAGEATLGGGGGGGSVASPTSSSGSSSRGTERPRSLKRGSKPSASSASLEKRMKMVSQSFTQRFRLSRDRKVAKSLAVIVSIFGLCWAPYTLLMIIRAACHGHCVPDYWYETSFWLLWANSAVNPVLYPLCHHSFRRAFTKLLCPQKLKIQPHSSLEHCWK

Consider `CSc1ccc(C2CN(C)Cc3cc(Oc4nc(CN5CCOCC5)cs4)ccc32)cc1` (centres undefined), for which the Ki in test [1] is 14 nM; in test [2] it was 15.5 nM.

In test [2], `CN(C)CCC(Oc1ccccc1)c1ccc(OCCCN2CCCCC2)cc1` (centres undefined) displayed an inhibition constant Ki of 25.7 nM.

For the compound `CSc1ccc(C2CN(C)Cc3cc(Oc4nc(CN5CCCCC5)cs4)ccc32)cc1` (centres undefined), the Kb on Histamine H3 receptor is 20 nM.

Turning to `CSc1ccc(C2CN(C)Cc3cc(Oc4cncc(CN5CCCCC5)c4)ccc32)cc1` (centres undefined), the Ki in test [1] was 9.7 nM; in test [2], 8.3 nM.

In the case of `CSc1ccc(C2CN(C)Cc3cc(Oc4ccc(CN5CCCCC5)cn4)ccc32)cc1` (centres undefined), the outcome with Mus musculus [3] was inactive. On Histamine H3 receptor, the Kb is 20 nM. Besides, in the test with Mus musculus [4], the Activity came out at 272%.

The values are drawn from ChEMBL document CHEMBL1137450, “Dual serotonin transporter inhibitor/histamine H3 antagonists: development of rigidified H3 pharmacophores” (Bioorg Med Chem Lett, 2007).
